In article PMC4966941 (PLoS ONE, 2016):
Where a name gives a salt, the structure may show the parent alone.

Test system: Staphylococcus aureus Xen 36
Test: In-vivo infection prevention study: microbiological analysis of explanted tissue
Description: Bioluminescent strain Staphylococcus aureus Xen 36 (Caliper LifeSciences, Alameda, CA) was used to develop bone infection. The strain was stored in a glycerol (20% v/v) and Brain Heart Infusion (BHI) suspension at -80°C until required. Bacteria were subcultured onto an LB plate (Luria-Bertani, Miller broth mixed with 1.2% (w/v) Technical Agar (Difco, Sparks, MD.)), at 37°C overnight. Five colonies were then transferred to 3 mL LB broth and grown in shaker incubator (200 rpm), at 37°C for 2.5 h. Two milliliters of the bacterial suspension was transferred to 100 mL LB broth and grown for a further 4 h, until the cells reached exponential growth. Bacterial suspension was transferred into 50 mL centrifuge tubes and cells centrifuged at ~3,000 rpm for 30 min. Supernatants were discarded and pellets were re-suspended in 15 mL Phosphate Buffered Saline (PBS). Cells were then mixed by vortexing and the centrifugation process was repeated. This cell washing process was repeated three times. The final washed and pelleted cells were re-suspended in a total of 10 mL PBS, and mixed by vortexing. The cell suspension was then ten-fold serially diluted. The concentration of the cell suspension was then determined using the spread plate technique and spreading 100 μL of the various dilutions onto LB plates, in duplicate. Plates were incubated at 37°C overnight before counting colony forming units (CFU). The viable count was then used to dilute the washed cell suspension to the desired concentrations (i.e., average Log10 7.82 CFU/mL or 6.62x10^7 CFU/mL) using PBS. Two hundred microliter aliquots were dispensed into microfuge tubes and labeled bacterial inoculum. To inoculate the rat tibias the bacterial inoculum was mixed with equal volume of 1% (w/v) molten agarose (Pulsed field certified agarose, Biorad, Hercules, CA). Mixing the bacteria with agarose helped to control seepage of the inoculum and minimize contamination of the surrounding muscle.
After sacrificing the rats, the tibia and gastrocnemius muscle surrounding the surgical site were explanted, weighed separately and flash frozen with liquid nitrogen prior to pulverizing in a freezer mill (6770 Spex SamplePrep, Metuchen, NJ.). The powdered samples were then re-weighed, suspended (i.e., 1:10) in phosphate buffered saline (PBS), vortexed, and 10-fold serially diluted before plating (in duplicate) 100 μL of suspensions onto LB plates (Luria-Bertani, Miller broth mixed with 1.2% (w/v) Technical Agar (Difco, Sparks, MD.)). Plates were incubated at 37°C for 18–24 h and the bacterial load (colony forming units) per sample was calculated based on the number of colonies seen at specific dilutions. Confirmation of isolating S. aureus Xen 36 colonies from samples was determined using the IVIS (Lumina II, Caliper Life Science, Hopkinton, MA.). Non-bioluminescent colonies were confirmed as S. aureus using Gram staining, catalase test and Color Staph ID kit (Sure-Vue, Fisher Scientific, Houston TX.).

CN[C@H](CC(C)C)C(=O)N[C@H]1C(=O)N[C@@H](CC(N)=O)C(=O)N[C@H]2C(=O)N[C@H]3C(=O)N[C@H](C(=O)N[C@H](C(=O)O)c4cc(O)cc(O)c4-c4cc3ccc4O)[C@H](O)c3ccc(c(Cl)c3)Oc3cc2cc(c3O[C@@H]2O[C@H](CO)[C@@H](O)[C@H](O)[C@H]2O[C@H]2C[C@](C)(N)[C@H](O)[C@H](C)O2)Oc2ccc(cc2Cl)[C@H]1O [vancomycin, vancomycin hydrochloride]
Viable bacteria in tibia of treated rats (rat tibia inoculated with S. aureus Xen 36, single 25 mg/Kg intramedullary dose, end of 14-day study): < 200 CFU/g | Signs of infection around the surgical site (rat, S. aureus Xen 36, prophylactic single 25 mg/Kg intramedullary dose, 14 days): no signs of infection | Bacteria in the muscle and plasma samples of treated rats (rat, S. aureus Xen 36, single 25 mg/Kg intramedullary dose, end of study): No bacteria were detected | Ave Log10 CFU/muscle (treated rats, explanted muscle at end of 14-day study, mean of n = 9, values of 100 CFU = below detection limit): 2.00 Log10 CFU/muscle | Ave Log10 CFU/tibia (treated rats, explanted tibia at end of 14-day study, mean of n = 9, values of 100 CFU = below detection limit): 2.09 Log10 CFU/tibia | Log10 CFU/tibia (treated, end of study, rat K-11, 2.00 = below detection limit): 2.81 Log10 CFU/tibia
